From patent publication US20060148828A1, “Combination comprising a CDK inhibitor and a topoisomerase 1 inhibitor for the treatment of cancer and other proliferative diseases” (Cyclacel Limited, priority 2003, published 2006)
“And” between values parts separate entries of the source, which are not always exact repeats. Equal values may be shown once.

What was measured:
[1] = tested on: wt-p53 HT29-A4 xenografts; assay: Antitumor effects on xenografts in nude mice; assay type: in vivo, Swiss nu/nu mice; conditions: for TGI, tumor growth inhibition: at sacrifice of first control mouse
[2] = tested on: HT29 colon tumor xenografts; assay: In vivo drug efficacy on xenografts in nude mice; parameters: species or system Swiss nu/nu mice; conditions: for CR nb (complete regression) / Cures nb (tumour-free mice at end) / PR nb (partial response): 9 mice; for TGI % (day): day 21; for Calc growth delay (TGD treated − TGD control): doses as in Treatment column; for Fraction T/C (treated RTV/control RTV × 100): mouse, in vivo
wt-p53 HT29-A4 cells [3] = assay: Western blot of apoptosis markers (PARP p85, cleaved caspase-3); assay type: cell-based, human; conditions: 1 μM CPT-11 for 72 h
wt-p53 HT29-A4 cells [4] = conditions: 1 μM CPT-11 for 72 h, synchronized cells
Method: (§1) Cells were maintained in DMEM medium supplemented with 10% fetal calf serum, and under continuous selection with geneticin for the wt-p53 HT29-A4 cell line.
(§2) Cells were synchronized in G0/G1 by serum starvation for 48 h. Addition of serum and fresh medium released cells from the block and promoted them to cycle. Cell cycle progression was analyzed by BrdU (5-bromo-2′-deoxiuridine; Sigma) incorporation as described (13).

wt-p53 HT29-A4 cells [5] = assay: Cell cycle progression (BrdU incorporation); conditions: 1 μM CPT-11, up to 36 h, G0/G1 synchronized cells
Method: as §1, §2

[6] = alone or in combination with chemotherapy, three to six 4-day cycles
in vivo = conditions: Swiss nu/nu, mouse, po
[7] = CPT-11 40 mg/kg/day i.p., 8 mice per group

## CCc1c2c(nc3ccc(OC(=O)N4CCC(N5CCCCC5)CC4)cc13)-c1cc3c(c(=O)n1C2)COC(=O)[C@]3(O)CC [CPT-11, irinotecan]
[1]; CPT-11 10 mg/kg/day i.p.
  Growth delay (treated/control TGT difference): 10 days
  TGI, tumor growth inhibition: 60%
[1]; CPT-11 10 mg/kg/day i.p., 10 mice per group
  No. PR (partial response): 8
[1]; CPT-11 40 mg/kg/day i.p.
  Growth delay (treated/control TGT difference): 22 days
[1]; [7]
  No. PR (partial response): 7
  No. cures (tumor-free mice at end of experiment): 1
[1]; CPT-11 40 mg/kg/day i.p., 40 mg/kg/day
  TGI, tumor growth inhibition: 87% and 86%
[1]; CPT-11 at both doses (10 and 40 mg/kg/day)
  survival score of mice (tumors reaching 2000 mm3 as a function of time): significantly increased the survival score
[2]
  CR nb (complete regression): 0
  Cures nb (tumour-free mice at end): 0
  PR nb (partial response): 0
  TGI % (day): 61.6%
  Calc growth delay (TGD treated − TGD control): 12.6 days
  Fraction T/C (treated RTV/control RTV × 100): 38.4
[2]; CPT-11 10 and 40 mg/kg/day i.p., data not shown
  response of mut-p53 xenografts to CPT-11: no response
wt-p53 HT29-A4 cells [3]
  apoptosis (PARP p85 fragment, caspase-3 activation): increased apoptosis
wt-p53 HT29-A4 cells [4]
  cell proliferation versus untreated cells and mut-p53 cells: significantly decreased cell proliferation
wt-p53 HT29-A4 cells [5]
  cell cycle blockage: blocked in early S phase

## CC[C@H](CO)Nc1nc(NCc2ccccc2)c2ncn(C(C)C)c2n1 [roscovitine, 6-benzylamino-2-[(R)-1-ethyl-2-hydroxyethylamino]-9-isopropylpurine]
[2]; 400 mg/kg/day for up to six weeks
  antitumour activity as single agent: did not show antitumour activity
[2]
  CR nb (complete regression): 0
  Cures nb (tumour-free mice at end): 0
  PR nb (partial response): 0
  TGI % (day): 30.4%
  Calc growth delay (TGD treated − TGD control): 3 days
  Fraction T/C (treated RTV/control RTV × 100): 69.6
[6]
  tolerance: well tolerated
In vivo
  MTD: 400 mg/kg/day
